Results published in patent publication US10344019B2 (priority 2010, dated 2019).
pEC50: −log10 of the molar value. Where two headings read alike, the source gives them in different places.

Key:
Type in all cases: cell-based
[1] = test system: HCV 1a RLuc cells (dicistronic genotype 1a H77 replicon, RLuc reporter); assay: microbe, parasite or virus in culture; conditions: Hepatitis C virus, read-out: 1a
Procedure, shortened: (§1)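 Replicons used: genotype 1b Con1, 1a H77, 2a JFH-1, and a 2a JFH-1 chimera with J6-strain NS5A (M31 present), all dicistronic.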

[2] = test system: HCV 1b RLuc cells (dicistronic genotype 1b Con1 replicon, RLuc reporter); assay: microbe, parasite or virus in culture; conditions: Hepatitis C virus, read-out: 1b (nM)
Procedure, shortened: as §1

[3] = test system: HCV 2a JFH-1 Rluc cells (dicistronic genotype 2a JFH-1 replicon, RLuc reporter); assay: microbe, parasite or virus in culture; conditions: Hepatitis C virus, read-out: 2a JFH
Procedure, shortened: as §1

[4] = test system: HCV 2b Rluc cells (NS5A chimeric genotype 2a JFH-1 replicon with genotype 2b MD2b-1 NS5A gene, M31 present); assay: microbe, parasite or virus in culture; conditions: Hepatitis C virus, read-out: 2b
Procedure, shortened: (§2)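 Replicon cells stably carrying the listed RLuc-encoding dicistronic replicons were seeded and treated with DMSO serial dilutions of compound (10 mM stocks) diluted into culture medium. After 72 h, cells were lysed and Renilla luciferase activity measured. EC50 was derived by non-linear regression.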

[5] = test system: HCV 3a RLuc cells (NS5A chimeric genotype 1b Con1 replicon with consensus genotype 3a NS5A gene); assay: microbe, parasite or virus in culture; conditions: Hepatitis C virus
Procedure, shortened: as §2

[6] = test system: HCV 4a Rluc cells (NS5A chimeric genotype 1b Con1 replicon with genotype 4a NS5A gene); assay: microbe, parasite or virus in culture; conditions: Hepatitis C virus, read-out: 4a
Procedure, shortened: as §2

[7] = test system: Q30R in genotype 1a NS5A, 1a Rluc replicon transfected into Huh-7 cured-51 cells; assay: HCV replicon assay, resistance mutant 1a Q30R; conditions: Hepatitis C virus, Huh-7, read-out: 1a Q30R
Procedure, shortened: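 Cells were Huh-7 cured-51 transfected with replicon RNA of a genotype 1a H77 RLuc replicon carrying site-directed Q30R in NS5A.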

[8] = test system: HCV 2a Rluc cells (NS5A chimeric genotype 2a JFH-1 replicon with genotype 2a J6 strain NS5A gene, M31 present); assay: HCV replicon reporter assay, genotype 2a J6 (M31 present); conditions: Hepatitis C virus, read-out: 2a J6
Procedure, shortened: as §1

[9] = genotype 2a JFH-1 RLuc replicon
[10] = read-out: 3a, genotype 3a NS5A chimeric replicon
[11] = read-out: 3a, genotype 3a replicon

| SMILES | pEC50 ([1]; genotype 1a H77 RLuc replicon) | EC50 [2] | pEC50 [3, 9] | pEC50 [4] | pEC50 [5, 10] | pEC50 [6] | pEC50 [7] | pEC50 [8] | pEC50 ([1]; genotype 1a replicon) | pEC50 ([3]; genotype 2a JFH-1 replicon) | pEC50 [5, 11] |
| --- | --- | --- | --- | --- | --- | --- | --- | --- | --- | --- | --- |
| COC[C@H]1C[C@@H](c2nc3ccc4cc(-c5ccc(-c6cnc([C@@H]7CCCN7C(=O)[C@@H](NC(=O)OC)C(C)C)[nH]6)cc5OC(F)F)ccc4c3[nH]2)N(C(=O)[C@H](NC(=O)OC)c2ccccc2)C1 [Example 567] | 9.00 to 12.00 | 0.007 nM | 9.00 to 12.00 | 9.00 to 12.00 | 9.00 to 12.00 | 9.00 to 12.00 | 9.00 to 12.00 | 9.00 to 12.00 |  |  |  |
| COC[C@H]1C[C@@H](c2nc3ccc4cc(-c5ccc6c(ccc7nc([C@@H]8C[C@H](SCC(F)(F)F)CN8C(=O)[C@@H](NC(=O)OC)C(C)C)[nH]c76)c5)ccc4c3[nH]2)N(C(=O)[C@H](NC(=O)OC)c2ccccc2)C1 [Example 584] | 9.00 to 12.00 | 0.015 nM | 9.00 to 12.00 | 9.00 to 12.00 | 9.00 to 12.00 | 9.00 to 12.00 | 9.00 to 12.00 | 9.00 to 12.00 |  |  |  |
| COC[C@H]1C[C@@H](c2nc3ccc4cc5c(cc4c3[nH]2)OCc2cc(-c3cnc([C@@H]4CCCN4C(=O)[C@H](NC(=O)OC)c4ccccc4)[nH]3)ccc2-5)N(C(=O)[C@@H](NC(=O)OC)C(C)C)C1 [Example 544] | 9.00 to 12.00 | 0.026 nM | 9.00 to 12.00 | 9.00 to 12.00 | 9.00 to 12.00 | 9.00 to 12.00 | 9.00 to 12.00 | 9.00 to 12.00 |  |  |  |
| COC(=O)N[C@H](C(=O)N1CCC[C@H]1c1ncc(-c2ccc(-c3ccc4c(ccc5nc([C@@H]6CCCN6C(=O)[C@@H](NC(=O)OC)C(C)C)[nH]c54)c3)c(C#Cc3ccccc3)c2)[nH]1)C(C)C [Example 438] |  | 0.003 nM |  | < 7.36 |  | 9.00 to 12.00 | 7.36 to 9.00 | < 7.36 | 9.00 to 12.00 | 9.00 to 12.00 | 9.00 to 12.00 |
| COC[C@H]1C[C@@H](c2nc3ccc4cc(-c5ccc6c(ccc7nc([C@@H]8C[C@H]9C[C@H]9N8C(=O)[C@@H](NC(=O)OC)C(C)C)[nH]c76)c5)ccc4c3[nH]2)N(C(=O)[C@H](NC(=O)C2CC2)c2ccccc2)C1 [Example 502] | 9.00 to 12.00 | 0.016 nM | 9.00 to 12.00 | 9.00 to 12.00 | 9.00 to 12.00 | 9.00 to 12.00 | 9.00 to 12.00 | 9.00 to 12.00 |  |  |  |
| COC[C@H]1C[C@@H](c2nc3ccc4cc(-c5ccc6c(ccc7nc([C@@H]8C[C@H](COC)CN8C(=O)[C@@H](NC(=O)OC)C(C)C)[nH]c76)c5)ccc4c3[nH]2)N(C(=O)[C@@H](NC(=O)OC)C(C)C)C1 [Example 436] |  | 0.051 nM |  | 9.00 to 12.00 |  | 9.00 to 12.00 | 9.00 to 12.00 | 9.00 to 12.00 | 9.00 to 12.00 | 9.00 to 12.00 | 9.00 to 12.00 |
| COC[C@H]1C[C@@H](c2nc3ccc4cc5c(cc4c3[nH]2)OCc2cc(-c3cnc([C@@H]4C[C@H](C)CN4C(=O)[C@@H](NC(=O)OC)C(C)C)[nH]3)ccc2-5)N(C(=O)[C@H](NC(=O)OC)c2ccccc2)C1 [Example 555] | 9.00 to 12.00 | 0.021 nM | 9.00 to 12.00 | 9.00 to 12.00 | 9.00 to 12.00 | 9.00 to 12.00 | 9.00 to 12.00 | 9.00 to 12.00 |  |  |  |
| COC[C@H]1C[C@@H](c2nc3ccc4cc(-c5ccc6c(ccc7nc([C@@H]8C[C@H](COC)CN8C(=O)[C@H](NC(=O)OC)c8ccccc8)[nH]c76)c5)ccc4c3[nH]2)N(C(=O)[C@@H](NC(=O)OC)C(C)C)C1 [Example 437] |  | 0.048 nM |  | 9.00 to 12.00 |  | 9.00 to 12.00 | 9.00 to 12.00 | 9.00 to 12.00 | 9.00 to 12.00 | 9.00 to 12.00 | 9.00 to 12.00 |
| COC(=O)N[C@H](C(=O)N1C[C@@H](C)C[C@H]1c1nc2ccc3cc4c(cc3c2[nH]1)OCc1cc(-c2cnc([C@@H]3C[C@H](C)CN3C(=O)[C@H](NC(=O)OC)c3ccccc3)[nH]2)ccc1-4)C(C)C [Example 573] | 9.00 to 12.00 | 0.03 nM | 9.00 to 12.00 | 9.00 to 12.00 | 9.00 to 12.00 | 9.00 to 12.00 | 9.00 to 12.00 | 9.00 to 12.00 |  |  |  |
| CCC(=O)N[C@@H](C(=O)N1[C@@H]2CC[C@@H](C2)[C@H]1c1nc2ccc3cc(-c4ccc5c(ccc6nc([C@@H]7CCCN7C(=O)[C@@H](NC(=O)OC)C(C)C)[nH]c65)c4)ccc3c2[nH]1)c1ccccc1 [Example 418] |  | 0.035 nM |  | 9.00 to 12.00 |  | 9.00 to 12.00 | 7.36 to 9.00 | 9.00 to 12.00 | 9.00 to 12.00 | 9.00 to 12.00 | 9.00 to 12.00 |
| COC[C@H]1C[C@@H](c2nc3ccc4cc(-c5ccc6c(ccc7nc([C@@H]8CCCN8C(=O)[C@@H](NC(=O)OC)C(C)C)[nH]c76)c5)ccc4c3[nH]2)N(C(=O)[C@H](NC(=O)OC)c2ccccc2)C1 [Example 453] |  | 0.018 nM |  | 9.00 to 12.00 |  | 9.00 to 12.00 | 9.00 to 12.00 | 9.00 to 12.00 | 9.00 to 12.00 | 9.00 to 12.00 | 9.00 to 12.00 |
| COC[C@H]1C[C@@H](c2ncc(-c3ccc(-c4ccc(-c5cnc([C@@H]6CCCN6C(=O)[C@@H](NC(=O)OC)C(C)C)[nH]5)cc4)cc3)[nH]2)N(C(=O)[C@H](NC(=O)C2CC2)c2ccccc2)C1 [Example 506] | 9.00 to 12.00 | 0.036 nM | 9.00 to 12.00 | 9.00 to 12.00 | 9.00 to 12.00 | 9.00 to 12.00 | 9.00 to 12.00 | 9.00 to 12.00 |  |  |  |
| COC[C@H]1C[C@@H](c2nc3ccc4cc(-c5ccc6c(ccc7nc([C@@H]8CCCN8C(=O)[C@H](NC(=O)OC)c8ccccc8)[nH]c76)c5)ccc4c3[nH]2)N(C(=O)[C@@H](NC(=O)OC)C(C)C)C1 [Example 454] |  | 0.028 nM |  | 9.00 to 12.00 |  | 9.00 to 12.00 | 9.00 to 12.00 | 9.00 to 12.00 | 9.00 to 12.00 | 9.00 to 12.00 | 9.00 to 12.00 |
| COC(=O)N[C@H](C(=O)N1[C@@H]2C[C@@H]2C[C@H]1c1nc2ccc3cc4c(cc3c2[nH]1)OCc1cc(-c2cnc([C@@H]3CCCN3C(=O)[C@H](NC(=O)OC)c3ccccc3)[nH]2)ccc1-4)C(C)C [Example 536] | 9.00 to 12.00 | 0.013 nM | 9.00 to 12.00 | 9.00 to 12.00 | 9.00 to 12.00 | 9.00 to 12.00 | 9.00 to 12.00 | 9.00 to 12.00 |  |  |  |
| COC(=O)N[C@H](C(=O)N1C[C@@H](C)C[C@H]1c1nc2ccc3cc4c(cc3c2[nH]1)OCc1cc(-c2cnc([C@@H]3CC[C@H](C)N3C(=O)[C@@H](NC(=O)OC)C(C)C)[nH]2)ccc1-4)C(C)C [Example 566] | 9.00 to 12.00 | 0.009 nM | 9.00 to 12.00 | 9.00 to 12.00 | 9.00 to 12.00 | 9.00 to 12.00 | 9.00 to 12.00 | 9.00 to 12.00 |  |  |  |
| COC(=O)N[C@H](C(=O)N1CCC[C@H]1c1ncc(-c2ccc3c(c2)COc2cc4c(ccc5nc([C@@H]6CCCN6C(=O)[C@@H](NC(=O)OC)C(C)C)[nH]c54)cc2-3)[nH]1)C(C)C [Example 422] |  | 0.017 nM |  | 9.00 to 12.00 |  | 9.00 to 12.00 | 9.00 to 12.00 | 7.36 to 9.00 | 9.00 to 12.00 | 9.00 to 12.00 | 9.00 to 12.00 |
| COC[C@H]1C[C@@H](c2nc3ccc4cc(-c5ccc6c(ccc7nc([C@@H]8CC[C@H](C)N8C(=O)[C@@H](NC(=O)OC)C(C)C)[nH]c76)c5)ccc4c3[nH]2)N(C(=O)[C@H](NC(=O)OC)c2ccccc2)C1 [Example 554] | 9.00 to 12.00 | 0.012 nM | 9.00 to 12.00 | 9.00 to 12.00 | 9.00 to 12.00 | 9.00 to 12.00 | 9.00 to 12.00 | 9.00 to 12.00 |  |  |  |
| COC(=O)N[C@H](C(=O)N1[C@@H](C)CC[C@H]1c1ncc(-c2ccc3c(c2)COc2cc4c(ccc5nc([C@@H]6CC[C@H](C)N6C(=O)[C@@H](NC(=O)OC)[C@@H](C)OC)[nH]c54)cc2-3)[nH]1)[C@@H](C)OC [Example 592] | 9.00 to 12.00 |  | 9.00 to 12.00 | 9.00 to 12.00 | 9.00 to 12.00 | 9.00 to 12.00 | 9.00 to 12.00 | 9.00 to 12.00 |  |  |  |
| COC[C@@H]1C[C@@H](c2nc3ccc4cc5c(cc4c3[nH]2)OCc2cc(-c3cnc([C@@H]4CCCN4C(=O)[C@@H](NC(=O)OC)C(C)C)[nH]3)ccc2-5)N(C(=O)[C@H](NC(=O)OC)c2ccccc2)C1 [Example 589] | 9.00 to 12.00 |  | 9.00 to 12.00 | 9.00 to 12.00 | 9.00 to 12.00 | 9.00 to 12.00 | 9.00 to 12.00 | 9.00 to 12.00 |  |  |  |
